Read-outs that look alike come from different tables or passages of the source.

The values below come from patent US7375136B2, “pH-dependent NMDA receptor antagonists” (Emory University, priority 2001, dated 2008).

The test system of one test is Male Sprague-Dawley rats. Description: Maximal electroshock seizures, duration of tonic hindlimb extension (THE). To be noted: for Anticonvulsive effects: rat maximal electroshock, summary in words; for THE in drug (% control): rat, mean ± sem. Format: in vivo. The text has this: Methods: Male Sprague-Dawley rats weighing less than 150 gm were used for these experiments. Maximal electroshock seizures were produced by delivering 200 ms biphasic square-wave pulses of 200 mA at 60 Hz via corneal electrodes, using a Wahlquist Constant Current Source (Salt Lake City, Utah). A drop of 0.9% lidocaine in saline was applied to each cornea 30 s before stimulus delivery to minimize pain. Automatic timers recorded the durations of tonic hindlimb flexion, tonic hindlimb extension (THE), clonus and flaccidity that sequentially followed stimulus delivery. The duration of THE was used as an index of seizure severity. Animals were stimulated on three consecutive days, referred to as “control”, “test”, and “recovery”. […] On “test” day, each animal received either vehicle or drug at varying intervals prior to stimulation. Reversibility of drug effect on THE was ascertained by response to stimulation administered one day after the “test” session. The values shown in the table are the mean (±sem) THE duration in the test condition, as a percentage of the mean of control and recovery conditions. Four rats were used for each time point.
P<0.001 for difference from vehicle by one-way ANOVA with Dunnett's post hoc test. For all other conditions P>0.05.
For orientation: In the maximal electroshock model the usual endpoint is tonic extension of the hind limbs.

In a further test the target is NR1-1a/NR2B receptors (Homo sapiens, UniProt Q05586+Q13224). The test can be described thus: Two electrode voltage clamp of Xenopus oocytes expressing NR1-1a and NR2B NMDA receptor subunits; inhibition of glutamate/glycine current at pH 6.9 and 7.6. Format: cell-based. To be noted: for Fold increase in potency between pH 7.6 and 6.9: IC50 at pH 7.6/IC50 at pH 6.9. The protocol:
Current recordings were obtained using two electrode voltage clamp of Xenopus oocytes injected with cRNA encoding the NR1-1a and NR2B NMDA receptor subunits. Cells were injected with 5-15 ng of cRNA encoding NR1-1a in combination with a 2-3 fold greater amount of either NR2B cRNA. Injected oocytes were maintained at 17° C. in Barths solution containing penicillin (10 U/ml) and streptomycin (10 μg/ml) for 2-6 days, after which recordings were made at room temperature from oocytes continuously perfused in a standard frog Ringers solution. This solution was composed of (in mM): 90 NaCl, 1.0 KCl, 10 Hepes and 0.5 BaCl2. Recording pipettes were filled with 0.3M KCl. Saturating concentrations of glutamate (20-50 μM) and glycine (20 μM) were used to activate the receptor. Drugs were prepared daily from frozen stock solutions in DMSO. Glutamate/glycine-activated currents were typically elicited from a holding potential of −20 to −40 mV. Current signals were digitized and analyzed using custom acquisition software. To study the effects of pH, oocytes were perfused with Ringer's solution at the desired pH until a stable baseline had been reached before subsequent agonist application.
Oocytes in which the glutamate/glycine current was not stable or in which the baseline holding current drifted were discarded. Inhibition of the glutamate/glycine current by drugs was examined by applying 1-4 different concentrations of the antagonist to each oocyte. […] On average recordings were made from 14 oocytes per condition.

The mark [1] stands for this setting: Table D, pH 6.9, NR1-1a/NR2B in Xenopus oocytes, read-out: IC50 at pH 6.9.
Where [2] appears, read: Table A, pH 6.9, NR1-1a/NR2B in Xenopus oocytes, read-out: IC50 at pH 6.9.
[3] abbreviates: Table B, pH 6.9, NR1-1a/NR2B in Xenopus oocytes, read-out: IC50 at pH 6.9.

Chain of NR1-1a/NR2B receptors (Q13224 27-1484, other chains not shown): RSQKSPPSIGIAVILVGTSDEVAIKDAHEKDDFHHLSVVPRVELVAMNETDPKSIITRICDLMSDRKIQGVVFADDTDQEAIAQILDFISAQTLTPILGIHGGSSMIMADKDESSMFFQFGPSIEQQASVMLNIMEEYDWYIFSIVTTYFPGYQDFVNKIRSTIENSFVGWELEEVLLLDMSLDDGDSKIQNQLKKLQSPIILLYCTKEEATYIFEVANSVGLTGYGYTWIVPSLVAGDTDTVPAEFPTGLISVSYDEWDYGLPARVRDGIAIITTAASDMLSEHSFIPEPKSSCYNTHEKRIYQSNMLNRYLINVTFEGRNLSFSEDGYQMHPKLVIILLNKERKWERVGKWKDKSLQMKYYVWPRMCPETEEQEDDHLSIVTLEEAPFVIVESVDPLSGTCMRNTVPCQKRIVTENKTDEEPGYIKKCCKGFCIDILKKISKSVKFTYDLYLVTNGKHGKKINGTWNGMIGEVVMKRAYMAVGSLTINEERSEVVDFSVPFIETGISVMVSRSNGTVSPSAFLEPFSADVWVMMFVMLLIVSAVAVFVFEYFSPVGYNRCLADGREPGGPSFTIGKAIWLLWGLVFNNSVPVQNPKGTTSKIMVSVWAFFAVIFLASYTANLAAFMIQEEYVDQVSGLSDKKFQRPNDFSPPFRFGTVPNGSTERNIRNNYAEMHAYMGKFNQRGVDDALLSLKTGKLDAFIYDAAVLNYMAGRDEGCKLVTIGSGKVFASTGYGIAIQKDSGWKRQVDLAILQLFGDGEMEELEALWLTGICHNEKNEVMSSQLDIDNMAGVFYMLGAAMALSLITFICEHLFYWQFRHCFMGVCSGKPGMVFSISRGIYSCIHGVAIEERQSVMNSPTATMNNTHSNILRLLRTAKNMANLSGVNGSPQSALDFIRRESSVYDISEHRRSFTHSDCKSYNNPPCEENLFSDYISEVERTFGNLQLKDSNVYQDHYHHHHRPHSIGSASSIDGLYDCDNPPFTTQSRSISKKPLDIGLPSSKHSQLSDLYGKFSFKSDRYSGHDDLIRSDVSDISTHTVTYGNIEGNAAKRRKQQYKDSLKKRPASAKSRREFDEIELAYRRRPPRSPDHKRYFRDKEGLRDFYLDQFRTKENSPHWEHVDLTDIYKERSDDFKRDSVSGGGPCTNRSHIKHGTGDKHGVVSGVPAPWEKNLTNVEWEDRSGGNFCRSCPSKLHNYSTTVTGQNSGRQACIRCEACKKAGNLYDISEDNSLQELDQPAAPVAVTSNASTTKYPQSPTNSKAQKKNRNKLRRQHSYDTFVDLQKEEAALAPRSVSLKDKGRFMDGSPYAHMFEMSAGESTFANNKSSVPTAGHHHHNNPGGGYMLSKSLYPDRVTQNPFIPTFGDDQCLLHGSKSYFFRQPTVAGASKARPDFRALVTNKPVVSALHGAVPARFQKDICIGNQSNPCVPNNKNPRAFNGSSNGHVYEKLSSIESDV

On to `CN(CCc1ccc(Cl)c(Cl)c1)CC(O)COc1ccc(NS(C)(=O)=O)cc1.Cl` (racemic) [Compound 93, (R,S) 1-(4-methanesulfonamidophenoxy)-3-(N-methyl-3,4-dichlorophenylethylamine)-2-propanol hydrochloride, reference compound], for which the Anticonvulsive effects entry in the test on Male Sprague-Dawley rats is “Anticonvulsive effects”. Also, the “THE in drug (% control)” value in the test on Male Sprague-Dawley rats (10 mg/kg, 15 min from drug injection to electroshock) amounted to 78.2 ± 4.5 % control; with Male Sprague-Dawley rats (10 mg/kg, 30 min from drug injection to electroshock), 58.5 ± 11.3 % control; in the test with Male Sprague-Dawley rats (10 mg/kg, 60 min from drug injection to electroshock) it was 62.4 ± 3.9 % control; in the test on Male Sprague-Dawley rats (30 mg/kg, 240 min from drug injection to electroshock) it was 96.2 ± 1.7 % control.

For `OC(CNCCc1ccc(Cl)c(Cl)c1)COc1ccc(OC(F)(F)F)cc1` (racemic) [Compound 93-16], the “Fold increase in potency between pH 7.6 and 6.9” value (“Fold increase” below) on NR1-1a/NR2B receptors (Table D) came to 4.82. Moreover, on NR1-1a/NR2B receptors (setting [1]), the IC50 was found to be 11200 nM.

Turning to `CN(CCc1ccc(Cl)c(Cl)c1)C[C@H](O)COc1ccc(NS(C)(=O)=O)cc1` [93-2 (S), (S)-1-(4-Methanesulphonamidephenoxy)3-(N-methyl-3,4-dichloro-phenylethylamino)-2-propanol], the “Fold increase” value on NR1-1a/NR2B receptors (Table A) and on NR1-1a/NR2B receptors (Table C) was 5.87 throughout. For the same compound, on NR1-1a/NR2B receptors (setting [2]), the IC50 was 63 nM.

As to `CS(=O)(=O)Nc1ccc(OC[C@@H](O)CNCCc2ccc(Cl)c(Cl)c2)cc1.Cl` [93-4 (S), (S)-1-(4-methanesulfonamideophenoxy)-3-(3,4-dichlorophenylethylamine)-2-propanol hydrochloride], the “Fold increase” value on NR1-1a/NR2B receptors (Table B), at NR1-1a/NR2B receptors (Table C) and at NR1-1a/NR2B receptors (Table D) was 3.54 each time. Moreover, the concentration for half-maximal inhibition (IC50) at NR1-1a/NR2B receptors (setting [3]) and at NR1-1a/NR2B receptors (setting [1]) was 26 nM in each case. The Anticonvulsive effects result in the test with Male Sprague-Dawley rats is given as “Anticonvulsive effects”. For the same compound, the “THE in drug (% control)” value in the test on Male Sprague-Dawley rats (3 mg/kg, 15 min from drug injection to electroshock) was 91.1 ± 2.7 % control; with Male Sprague-Dawley rats (3 mg/kg, 60 min from drug injection to electroshock), 109 ± 11.5 % control; in the test on Male Sprague-Dawley rats (30 mg/kg, 15 min from drug injection to electroshock), 66.6 ± 12.5 % control; with Male Sprague-Dawley rats (30 mg/kg, 60 min from drug injection to electroshock), 30.8 ± 12.1 % control.

On to `CCN(CCc1ccc(Cl)c(Cl)c1)C[C@H](O)COc1ccc(NS(C)(=O)=O)cc1` [93-5 (S), (S)-1-(4-Methanesulphonamidephenoxy)-3-(N-ethyl-3,4-dichloro-phenylethylamino)-2-propanol], for which the “Fold increase” value on NR1-1a/NR2B receptors (Table A) and on NR1-1a/NR2B receptors (Table C) was 8.00 in each case. Further, the IC50 on NR1-1a/NR2B receptors (setting [2]) amounted to 20 nM.

As to `CCCN(CCc1ccc(Cl)c(Cl)c1)C[C@H](O)COc1ccc(NS(C)(=O)=O)cc1` [93-6 (S), (S)-1-(4-Methanesulphonamidephenoxy)3-(N-propyl-3,4-dichloro-phenylethylamino)-2-propanol], the “Fold increase” value at NR1-1a/NR2B receptors (Table A) and on NR1-1a/NR2B receptors (Table C) was 6.54 each time. The IC50 on NR1-1a/NR2B receptors (setting [2]) was 111 nM.

`CN(c1ccc(OC[C@@H](O)CNCCc2ccc(Cl)c(Cl)c2)cc1)S(C)(=O)=O` [93-7 (S), (S)-1-(4-N-methyl-methanesulphonamidephenoxy)-3-(3,4-dichloro-phenylethylamino)-2-propanol]: the IC50 on NR1-1a/NR2B receptors is 2330 nM. In addition, on NR1-1a/NR2B receptors (Table D), the “Fold increase” value was determined as 5.51.

`CS(=O)(=O)Nc1cccc(OC[C@@H](O)CNCCc2ccc(Cl)c(Cl)c2)c1` [93-9 (S), (S)-1-(3-Methanesulphonamidephenoxy)3-(3,4-dichlorophenylcthyl-amino)-2-propanol]: the half-maximal inhibitory concentration (IC50) on NR1-1a/NR2B receptors came out at 208 nM. For the same compound, the “Fold increase” value at NR1-1a/NR2B receptors (Table D) stood at 8.19.

Regarding `O=[N+]([O-])c1ccc(OC[C@@H](O)CNCCc2ccc(Cl)c(Cl)c2)cc1` [93-10 (S), (S)-1-(4-Nitrophenoxy)3-(3,4-dichlorophenylethylamino)-2propanol], the IC50 at NR1-1a/NR2B receptors turned out to be 12100 nM. The “Fold increase” value on NR1-1a/NR2B receptors (Table D) is 1.60.

For the compound `CC(=O)OC(COc1ccc(NS(C)(=O)=O)cc1)CN(CCc1ccc(Cl)c(Cl)c1)C(C)=O` [93-28 (S), 1-(4-Methanesulphonamidophenoxy)-3-(N-acetyl-3,4-dichloro-phenylethylamino)-2-propyl acetate], the “Fold increase” value on NR1-1a/NR2B receptors (Table A) was 11.1. Further, at NR1-1a/NR2B receptors (setting [2]), the IC50 is 1640 nM.

With `O=S(=O)(Nc1ccc(OCC(O)CNCCc2ccc(Cl)c(Cl)c2)cc1)c1ccccc1` [93-29 (S), 1-(4-benzenesulphonamidophenoxy)-3-(3,4-dichloro-phenylethyl-amino)-2-propanol], at NR1-1a/NR2B receptors, the IC50 was determined as 1160 nM. Further, the “Fold increase” value at NR1-1a/NR2B receptors (Table A) amounted to 18.0; at NR1-1a/NR2B receptors (Table D), 18.02.

On to `CS(=O)(=O)Nc1ccc(OC[C@@H](O)CN(CCc2ccc(Cl)c(Cl)c2)Cc2ccccc2)cc1` [93-30 (S), (S)-1-(4-Methanesulphonamidephenoxy)-3-(N-benzyl-3,4-dichloro-phenylethylamino)-2-propanol], for which the “Fold increase” value at NR1-1a/NR2B receptors (Table A) and on NR1-1a/NR2B receptors (Table C) was 16.8 throughout. Further, on NR1-1a/NR2B receptors (setting [2]), the IC50 worked out at 70 nM.

Regarding `CCCCN(CCc1ccc(Cl)c(Cl)c1)C[C@H](O)COc1ccc(NS(C)(=O)=O)cc1` [93-31 (S), (S)-1-(4-Methanesulphonamidephenoxy)-3-(N-butyl-3,4-dichloro-phenylethylamino)-2-propanol], the “Fold increase” value at NR1-1a/NR2B receptors (Table A) and on NR1-1a/NR2B receptors (Table C) was 51.2 in each case. The IC50 at NR1-1a/NR2B receptors (setting [2]) came out at 58 nM.

On to `CS(=O)(=O)Nc1ccccc1OC[C@@H](O)CNCCc1ccc(Cl)c(Cl)c1` [93-32 (S), 1-(2-Methanesulphonamidephenoxy)-3-(3,4-dichlorophenylethylamino)-2-propanol], for which, at NR1-1a/NR2B receptors, the IC50 was 17900 nM.

As to `CS(=O)(=O)Nc1ccc(OC[C@@H](O)CN(CCc2ccc(Cl)c(Cl)c2)Cc2ccc(F)cc2)cc1` [93-33 (S), (S)-1-(4-Methanesulphonamidephenoxy)-3-(N-(4-fluorobenzyl)-3,4-dichlorophenylethylamino)-2-propanol], at NR1-1a/NR2B receptors (Table B), the “Fold increase” value was found to be 0.810. Besides, at NR1-1a/NR2B receptors (setting [3]), the IC50 was 520 nM.

Take `CS(=O)(=O)Nc1ccc(OC[C@@H](O)CN(CCc2ccc(Cl)c(Cl)c2)Cc2cccc(F)c2)cc1` [93-34 (S), (S)-1-(4-Methanesulphonamidephenoxy)-3-(N-(3-fluorobenzyl)-3,4-dichlorophenylethylamino)-2-propanol]: the “Fold increase” value on NR1-1a/NR2B receptors (Table B) is 4.62. Moreover, the IC50 at NR1-1a/NR2B receptors (setting [3]) worked out at 210 nM.

For `CS(=O)(=O)Nc1ccc(OC[C@@H](O)CN(CCc2ccc(Cl)c(Cl)c2)Cc2ccccc2F)cc1` [93-35 (S), (S)-1-(4-Methanesulphonamidephenoxy)-3-(N-(2-fluorobenzyl)-3,4-dichlorophenylethylamino)-2-propanol], the “Fold increase” value at NR1-1a/NR2B receptors (Table B) was determined as 3.60. Besides, the IC50 on NR1-1a/NR2B receptors (setting [3]) worked out at 48 nM.

On to `NC(=O)N1c2ccccc2C=Cc2ccccc21` [Carbamazepine, reference compound], for which the “THE in drug (% control)” value in the test with Male Sprague-Dawley rats (40 mg/kg, 30 min from drug injection to electroshock) was 0.0 ± 0.0 % control.

With `C[C@@H](CN1CCC(Cc2ccccc2)CC1)[C@@H](O)c1ccc(O)cc1` [Ro256981, reference compound], the “Fold increase” value on NR1-1a/NR2B receptors (Table B) is 0.444. For the same compound, the 50% inhibitory concentration (IC50) on NR1-1a/NR2B receptors (setting [3]) is 18 nM.

Broadly, the IC50 is the concentration that inhibits the measured activity by half.
